This experiment deals with Pseudomonas aeruginosa. The experiment is described as follows: prevention of microbial growth in cutting oil emulsions (Kutwell 30). To be noted: 3.3% cutting oil emulsion (Kutwell 30), 28° C., read-out: concentration required to prevent microbial growth. The class given is cell-based. The procedure: In running these tests, two-fold serial dilutions of 6% solutions of the compound in dimethylformamide was added to 3.3% cutting oil emulsions. The emulsions were prepared by diluting with water a commercially available cutting oil concentrate. The emulsions were inoculated with a culture of Pseudomonas aeruginosa and incubated at 28° C. on a rotary shaker. At weekly intervals, the emulsions were examined for bacteria by conventional streakplate methods. The emulsions were then reinoculated with Pseudomonas aeruginosa and reincubated.

Setting [1] is: 168 h, incubation period 1 week.
[2] abbreviates: 336 h, incubation period 2 weeks, reinoculated weekly.
The mark [3] stands for this setting: 504 h, incubation period 3 weeks, reinoculated weekly.
The mark [4] stands for this setting: 672 h, incubation period 4 weeks, reinoculated weekly.

The structures appear in SMILES notation. Like-named read-outs stand apart in the source and are kept apart here. Bounds are passed on as bounds.

For the compound `C[n+]1sccc1OCc1ccccc1`, the MIC is < 32 µg/mL under setting [1], < 32 µg/mL under setting [2], < 32 µg/mL under setting [3] and < 32 µg/mL under setting [4].
Consider `COc1c(Br)cs[n+]1C`, for which the MIC is < 32 µg/mL under setting [1], 32 µg/mL under setting [2], 32 µg/mL under setting [3] and 32 µg/mL under setting [4].
`COc1ccs[n+]1C`: the MIC is, setting by setting: under setting [1], 32 µg/mL; under setting [2], 64 µg/mL; under setting [3], 64 µg/mL; under setting [4], 64 µg/mL.
`C=CCOc1ccs[n+]1C`: the MIC reads like this: under setting [1], < 32 µg/mL; under setting [2], < 32 µg/mL; under setting [3], 32 µg/mL; under setting [4], 32 µg/mL.

(Values after US4262127A, “3-Alkoxy-2-alkylisothiazolium salts and their derivatives” (Givaudan Corporation, priority 1979, dated 1981).)
